Read-outs that look alike come from different tables or passages of the source.
Columns and labels:
CHLA-25 = assay: XTT cell viability assay, CHLA-25; format: cell-based; conditions: 72 h, read-out: Viability IC50
Description: (§1) Cell viability assays. For viability assays, four EWS:Fli1 fusion tumor cell lines (RD-ES, SK-ES-1, A673, and TC-71), one human embryonic kidney cell line (293.T), one ES tumor cell line with ERG fusion (CHLA-25), one fetal kidney cell line (HEK293.T), one hepatoblastoma cell line (HepG2), one chronic myeloid leukemia (MEG-01), and one acute monocytic leukemia (THP-1) cell line were plated at 5000 cells/well in 100 μL growth media in 96-well plates. After overnight incubation, 50 μL of growth media containing mithramycin A (MithA) (Cayman Chemical, Ann Arbor, Mi. Item Number 11434) or boronic acid-conjugated nano-MithA (MANP) (0.12 nM to 500 nM, final) or dimethyl sulfoxide (DMSO, 0.01% v/v) vehicle was added to the wells, and cell viability assays were performed 72 hours later. The cells were incubated with the activated-XTT solution (mixture of 2% final concentration of activation reagent with the XTT reagent) from ATCC (Catalog Number 30-1011K, XTT Cell Proliferation Assay Kit) for 3 hours prior to recording absorbance. The cell viability was determined by measuring the absorbance wavelength at 475 nm and reference wavelength at 650 nm on an Infinite M200 plate reader (Tecan Group, Ltd. Mannedorf, Switzerland). […]

EWS:Fli1+ cells [1] = conditions: previous study; read-out: average IC50 in EWS:Fli1 cell lines, previous study; cited from earlier work
HEK293.T = assay: XTT cell viability assay, HEK293.T; format: cell-based; conditions: Homo sapiens, HEK-293T, 72 h, read-out: Viability IC50
Description: as §1

MEG-01 = assay: XTT cell viability assay, MEG-01; format: cell-based; conditions: read-out: Viability IC50, MEG-01, chronic myeloid leukemia, BRC:ABL, 72 hours
Description: as §1

Female C57BL/6J mice [2] = assay: In vivo toxicity: serum chemistry
Description: (§2) In vivo toxicity of MithA and MANP. Cohorts of n=6-7 C57BL/6J females, 8-10 wko were randomized to receive either intravenous or intraperitoneal administration of saline control vehicle, blank polymer, MithA, or MANP as described in TABLES 2A and 2B. Body weight loss exceeding 20%, death, morbidity, changes in behavior, and any other sign of local or systemic toxicity were recorded.
For serum chemistry blood was collected through a 20G needle 24 h after the last dose, by cardiac puncture under isoflurane anesthesia. The blood was distributed to EDTA-coated (100 uL) or clot-activator (>200 uL) Multivette-600 tubes (Sarstedt, Newton, N.C.) respectively for hematology and serum chemistry analyses. For serum isolation, blood allowed to clot at room temperature for at least 20 minutes, centrifuged 10 kG for 10 minutes, aliquoted and frozen at −80° C. until analysis on a VetScan VS2 instrument (Zoetis, Parsippany-Troy Hills, N.J.) with Zoetis Preventive Profile Plus panel for chemistry.

Rad51 = assay: RT-qPCR, Rad51 mRNA expression; format: cell-based; conditions: 10 nM, 3 cell lines tested
Description: (§3) Assessment of mRNA expression by RT-qPCR. Total RNA was extracted from EWS:Fli1^+ cell cultures (TC-71, A673, and RD-ES) exposed to 10 nM of MithA/MANP (final concentration) or DMSO, (0.01% v/v) vehicle and blank polymer for 24 hours by the RNeasy technique with RNeasy columns with on-column DNAse I digestion (Qiagen, Valencia, Calif.) according to the manufacturer's instructions. The concentration and purity of the extracts were determined by UV absorbance at 230/260/280/320 nm wavelengths using a Tecan Infinite M200 spectrophotometer. Template cDNA was synthesized from […] of RNA extract by reverse-transcription using the Quantitect RT kit (Qiagen). Oligonucleotide primer sequences and more detailed information described in Supplemental Table S4). RT-PCR was performed using Quantitect SYBR-green qPCR reagents in a Mastercycler ep Realplex2 instrument (Eppendorf AG, Hamburg, Germany). […] Relative quantification of mRNA expression between MithA/MANP or vehicle/blank polymer treated cells were semi-quantitatively calculated by comparing the average threshold cycle (Ct) for the treated samples to the average Ct for untreated samples (Vehicle or blank polymer. Amplification efficiency was determined for each primer set, and the Pfaffl equation to determine relative fold change in gene expression. Beta-actin was used as the housekeeping gene for normalization.

A673 = assay: XTT cell viability assay, A673; format: cell-based; conditions: Homo sapiens, A673, 72 h, read-out: Viability IC50
Description: as §1

EWS:Fli1+ cells [3] = assay: XTT cell viability assay, average over EWS:Fli1+ cell lines; format: cell-based; conditions: read-out: average IC50 against EWS:Fli1+ cells
Description: as §1

HepG2 = assay: XTT cell viability assay, HepG2; format: cell-based, human
Description: as §1

[4] = human, in vivo; cited from earlier work
Female C57BL/6J mice [5] = assay: In vivo toxicity of MithA and MANP: body weight, death, morbidity
Description: as §2

TC-71 = assay: XTT cell viability assay, TC-71; format: cell-based; conditions: TC-71, 72 h, read-out: Viability IC50
Description: as §1

NR0B1 = assay: RT-qPCR, NR0B1 mRNA expression; format: cell-based; conditions: 10 nM, 3 cell lines tested
Description: as §3

[6] = 5x2 mg/kg i.v., compared to saline vehicle
[7] = 5x4 mg/kg i.p., relative to saline vehicle
[8] = single i.v. 4 mg/kg, within 48 hours

In the case of `CO[C@H](C(=O)[C@@H](O)[C@@H](C)O)[C@@H]1Cc2cc3cc(O[C@H]4C[C@@H](O[C@H]5C[C@@H](O)[C@H](O)[C@@H](C)O5)[C@H](O)[C@@H](C)O4)c(C)c(O)c3c(O)c2C(=O)[C@H]1O[C@H]1C[C@@H](O[C@H]2C[C@@H](O[C@H]3C[C@](C)(O)[C@H](O)[C@@H](C)O3)[C@@H](O)[C@@H](C)O2)[C@H](O)[C@@H](C)O1` [MithA, (2S,3S)-2-[(2S,4R,5R,6R)-4-[(2S,4R,5S,6R)-4-[(2S,4S,5R,6R)-4,5-dihydroxy-4,6-dimethyloxan-2-yl]oxy-5-hydroxy-6-methyloxan-2-yl]oxy-5-hydroxy-6-methyloxan-2-yl]oxy-3-[(1 S,3S,4R)-3,4-dihydroxy-1-methoxy-2-oxopentyl]-6-[(2S,4R,5R,6R)-4-[(2S,4R,5S,6R)-4,5-dihydroxy-6-methyloxan-2-yl]oxy-5-hydroxy-6-methyloxan-2-yl]oxy-8,9-dihydroxy-7-methyl-3,4-dihydro-2H-anthracen-1-one], the IC50 (CHLA-25) is given as 349 nM, the IC50 (EWS:Fli1+ cells [1]) is given as 12 nM and the IC50 (HEK293.T) is given as 90.4 nM. The IC50 (MEG-01) was 37.8 nM, the glucose level (Female C57BL/6J mice [2]; 5 consecutive days i.p. 1 mg/kg, vs saline (p=0.005)) was “decreased” and the liver toxicity (Female C57BL/6J mice [2]; 5x2 mg/kg (eq.) i.v. alternating days) was “led to hepatoxicity”. For the same compound, the “decrease in glucose serum level” value (Female C57BL/6J mice [2]; [6]) was 1.9 fold, the “increase in ALT” value (Female C57BL/6J mice [2]; [6]) was 20.9 fold and the “increase in AST” value (Female C57BL/6J mice [2]; [6]) was 4.1 fold. For the same compound, the “increase in total bilirubin” value (Female C57BL/6J mice [2]; [6]) was 1.5 fold, the “decrease in glucose level” value (Female C57BL/6J mice [2]; [7]) was 1.9 fold and the “increase of alanine transaminase (ALT)” value (Female C57BL/6J mice [2]; [7]) was 16.9 fold. The “increase of aspartate aminotransferase (AST)” value (Female C57BL/6J mice [2]; [7]) was 5.4 fold, the “kidney injury or electrolyte imbalance” value (Female C57BL/6J mice [2]; five i.v. injections on alternating days, any treatment group) was “no evidence of kidney injury or electrolyte imbalance” and the “changes in serum chemistry” value (Female C57BL/6J mice [2]; single i.p. 4 mg/kg) was “no significant changes”. The “increase in ALT liver enzyme level” value (Female C57BL/6J mice [2]; single i.v. 4 mg/kg, in comparison to equivalent dose of MANP (p=0.0381)) was 1.7 fold, the “Rad51 mRNA expression” value (Rad51) was “unable to detect significant inhibition” and the IC50 (A673) was 12.4 nM. It also gave an IC50 (EWS:Fli1+ cells [3]) of 10 nM, an IC50 (HepG2; Homo sapiens, HepG2, 72 h, read-out: Viability IC50, HepG2, hepatoblastoma) of 24.9 nM and an IC50 (HepG2; read-out: Viability IC50, HepG2, hepatoblastoma, 72 hours) of 24.9 nM. For the same compound, the “ALT and AST elevations, increase in geometric mean” value [4] was “greater than 13 fold”, the “treated patients who developed hepatotoxicity” value [4] was 10/12 and the “toxicity by serum chemistry or hematology studies” value (Female C57BL/6J mice [5]; 5 consecutive days i.p. 1 mg/kg) was “no significant toxicity”. For the same compound, the death (Female C57BL/6J mice [5]; 5 consecutive days i.p. 4 mg/kg) was “One mouse died”, the body weight (Female C57BL/6J mice [5]; 5 consecutive days i.p. 4 mg/kg (p=0.0016)) was “progressive and significant body weight loss” and the morbidity (Female C57BL/6J mice [5]; 5 consecutive days i.p. 4 mg/kg, day of harvest (day 6)) was “one mouse found to be moribund”. For the same compound, the “outward signs of morbidity or toxicity” value (Female C57BL/6J mice [5]; five i.v. injections on alternating days, 1 mg/kg or 2 mg/kg) was “no obvious outward signs of morbidity or toxicity”, the body weight (Female C57BL/6J mice [5]; single i.p. injection, 1 mg/kg and 4 mg/kg, vs saline vehicle) was “no significant weight loss” and the “toxicity by serum chemistry or hematology assays” value (Female C57BL/6J mice [5]; single i.p. injection, 1 or 2 mg/kg) was “did not cause any toxicity”. For the same compound, the body weight (Female C57BL/6J mice [5]; single i.v. 4 mg/kg, in comparison to equivalent dose of MANP (p=0.048)) was “significant decrease”, the death rate (Female C57BL/6J mice [5]; [8]) was 75% and the mice that died (Female C57BL/6J mice [5]; [8]) was 6/8. The IC50 (TC-71) was 9.3 nM and the “NR0B1 mRNA expression” value (NR0B1) was “unable to detect significant inhibition”.

From patent US20230233695A1, “MITHRAMYCIN A NANOPARTICLES FOR CANCER TREATMENT” (priority 2021, published 2023)
